Patent publication US12108719B2, “Methods for creating doubled haploid plants” (Monsanto Technology LLC, priority 2015, dated 2024)

Assays:
haploid mother plant = assay: Tiller induction with doubled haploid mother plant (Example 7); type: in vivo, maize
Procedure: A haploid mother plant will be subjected to doubling treatment and thereafter planted in a pot, the soil surrounding the roots drenched with 100 mL of 2.5% of paclobutrazol, and then tended standard maize green house growing conditions for several days. […] One of the resulting daughter tiller plants can be separated from the mother plant, transplanted into a separate pot, and grown via standard green house management procedures to eventually recover a daughter plant with normal haploid morphology.

DH0 plants = assay: Ears classified by number of DH1 seed produced, first 3 co-dominant ears (Example 4); type: in vivo, maize; set-up: key: Class A ears produced approximately 50 seeds; Class B ears produced approximately 20-49 seeds; Class C ears produced approximately 1-20 seeds; Class 0 ears produced zero seeds; “—” represents a situation where a third ear was not formed by the plant
Text: When the DH1 ears were harvested in the experiment described in Example 3, four DH0 plants selected randomly from each germplasm were subjected to further scrutiny comprising recording of the approximate number of seeds produced from the first 3 co-dominant ears for each plant. […] In Table 4, ears are assigned to one of 4 categories, depending on the approximate number of seeds they produced: Class A ears produced approximately 50 seeds, Class B ears produced approximately 20-49 seeds, Class C ears produced approximately 1-20 seeds, and Class 0 ears produced zero seeds.

## CC(C)(C)[C@H](O)[C@H](Cc1ccc(Cl)cc1)n1cncn1 (relative stereo) [PBZ, (2S,3S)-1-(4-chlorophenyl)-4,4-dimethyl-2-(1,2,4-triazol-1-yl) pentan-3-ol]
Haploid mother plant; daughter tiller separated and transplanted
  DH1 seeds yielded by daughter tiller plant when selfed: several dozen DH1 seeds
Haploid mother plant; haploid mother plant after doubling treatment, 100 mL of 2.5% paclobutrazol soil drench
  morphology and tiller production of mother plant: shortened internodes and increased tiller production
DH0 plants; A, Plant 1, 1st ear
  Ears classified by the number of DH1 seed they produced: C (Class C ears produced approximately 1-20 seeds)
DH0 plants; A, Plant 1, 2nd ear
  Ears classified by the number of DH1 seed they produced: B (Class B ears produced approximately 20-49 seeds)
DH0 plants; A, Plant 1, 3rd ear
  Ears classified by the number of DH1 seed they produced: C (Class C ears produced approximately 1-20 seeds)
DH0 plants; A, Plant 2, 1st ear
  Ears classified by the number of DH1 seed they produced: C (Class C ears produced approximately 1-20 seeds)
DH0 plants; A, Plant 2, 2nd ear
  Ears classified by the number of DH1 seed they produced: A (Class A ears produced approximately 50 seeds)
DH0 plants; A, Plant 2, 3rd ear
  Ears classified by the number of DH1 seed they produced: C (Class C ears produced approximately 1-20 seeds)
DH0 plants; A, Plant 3, 1st ear
  Ears classified by the number of DH1 seed they produced: C (Class C ears produced approximately 1-20 seeds)
DH0 plants; A, Plant 3, 2nd ear
  Ears classified by the number of DH1 seed they produced: C (Class C ears produced approximately 1-20 seeds)
DH0 plants; A, Plant 3, 3rd ear
  Ears classified by the number of DH1 seed they produced: B (Class B ears produced approximately 20-49 seeds)
DH0 plants; A, Plant 4, 1st ear
  Ears classified by the number of DH1 seed they produced: A (Class A ears produced approximately 50 seeds)
DH0 plants; A, Plant 4, 2nd ear
  Ears classified by the number of DH1 seed they produced: C (Class C ears produced approximately 1-20 seeds)
DH0 plants; A, Plant 4, 3rd ear
  Ears classified by the number of DH1 seed they produced: 0 (Class 0 ears produced zero seeds)
DH0 plants; B, Plant 1, 1st ear
  Ears classified by the number of DH1 seed they produced: C (Class C ears produced approximately 1-20 seeds)
DH0 plants; B, Plant 1, 2nd ear
  Ears classified by the number of DH1 seed they produced: A (Class A ears produced approximately 50 seeds)
DH0 plants; B, Plant 1, 3rd ear
  Ears classified by the number of DH1 seed they produced: —
DH0 plants; B, Plant 2, 1st ear
  Ears classified by the number of DH1 seed they produced: B (Class B ears produced approximately 20-49 seeds)
DH0 plants; B, Plant 2, 2nd ear
  Ears classified by the number of DH1 seed they produced: C (Class C ears produced approximately 1-20 seeds)
DH0 plants; B, Plant 2, 3rd ear
  Ears classified by the number of DH1 seed they produced: C (Class C ears produced approximately 1-20 seeds)
DH0 plants; B, Plant 3, 1st ear
  Ears classified by the number of DH1 seed they produced: C (Class C ears produced approximately 1-20 seeds)
DH0 plants; B, Plant 3, 2nd ear
  Ears classified by the number of DH1 seed they produced: A (Class A ears produced approximately 50 seeds)
DH0 plants; B, Plant 3, 3rd ear
  Ears classified by the number of DH1 seed they produced: C (Class C ears produced approximately 1-20 seeds)
DH0 plants; B, Plant 4, 1st ear
  Ears classified by the number of DH1 seed they produced: C (Class C ears produced approximately 1-20 seeds)
DH0 plants; B, Plant 4, 2nd ear
  Ears classified by the number of DH1 seed they produced: A (Class A ears produced approximately 50 seeds)
DH0 plants; B, Plant 4, 3rd ear
  Ears classified by the number of DH1 seed they produced: C (Class C ears produced approximately 1-20 seeds)
DH0 plants; Control A, Plant 1, 1st ear
  Ears classified by the number of DH1 seed they produced: B (Class B ears produced approximately 20-49 seeds)
DH0 plants; Control A, Plant 1, 2nd ear
  Ears classified by the number of DH1 seed they produced: A (Class A ears produced approximately 50 seeds)
DH0 plants; Control A, Plant 1, 3rd ear
  Ears classified by the number of DH1 seed they produced: —
DH0 plants; Control A, Plant 2, 1st ear
  Ears classified by the number of DH1 seed they produced: C (Class C ears produced approximately 1-20 seeds)
DH0 plants; Control A, Plant 2, 2nd ear
  Ears classified by the number of DH1 seed they produced: B (Class B ears produced approximately 20-49 seeds)
DH0 plants; Control A, Plant 2, 3rd ear
  Ears classified by the number of DH1 seed they produced: C (Class C ears produced approximately 1-20 seeds)
DH0 plants; Control A, Plant 3, 1st ear
  Ears classified by the number of DH1 seed they produced: A (Class A ears produced approximately 50 seeds)
DH0 plants; Control A, Plant 3, 2nd ear
  Ears classified by the number of DH1 seed they produced: C (Class C ears produced approximately 1-20 seeds)
DH0 plants; Control A, Plant 3, 3rd ear
  Ears classified by the number of DH1 seed they produced: 0 (Class 0 ears produced zero seeds)
DH0 plants; Control A, Plant 4, 1st ear
  Ears classified by the number of DH1 seed they produced: B (Class B ears produced approximately 20-49 seeds)
DH0 plants; Control A, Plant 4, 2nd ear
  Ears classified by the number of DH1 seed they produced: B (Class B ears produced approximately 20-49 seeds)
DH0 plants; Control A, Plant 4, 3rd ear
  Ears classified by the number of DH1 seed they produced: 0 (Class 0 ears produced zero seeds)
DH0 plants; Control B, Plant 1, 1st ear
  Ears classified by the number of DH1 seed they produced: C (Class C ears produced approximately 1-20 seeds)
DH0 plants; Control B, Plant 1, 2nd ear
  Ears classified by the number of DH1 seed they produced: C (Class C ears produced approximately 1-20 seeds)
DH0 plants; Control B, Plant 1, 3rd ear
  Ears classified by the number of DH1 seed they produced: B (Class B ears produced approximately 20-49 seeds)
DH0 plants; Control B, Plant 2, 1st ear
  Ears classified by the number of DH1 seed they produced: A (Class A ears produced approximately 50 seeds)
DH0 plants; Control B, Plant 2, 2nd ear
  Ears classified by the number of DH1 seed they produced: A (Class A ears produced approximately 50 seeds)
DH0 plants; Control B, Plant 2, 3rd ear
  Ears classified by the number of DH1 seed they produced: 0 (Class 0 ears produced zero seeds)
DH0 plants; Control B, Plant 3, 1st ear
  Ears classified by the number of DH1 seed they produced: A (Class A ears produced approximately 50 seeds)
DH0 plants; Control B, Plant 3, 2nd ear
  Ears classified by the number of DH1 seed they produced: 0 (Class 0 ears produced zero seeds)
DH0 plants; Control B, Plant 3, 3rd ear
  Ears classified by the number of DH1 seed they produced: C (Class C ears produced approximately 1-20 seeds)
DH0 plants; Control B, Plant 4, 1st ear
  Ears classified by the number of DH1 seed they produced: B (Class B ears produced approximately 20-49 seeds)
DH0 plants; Control B, Plant 4, 2nd ear
  Ears classified by the number of DH1 seed they produced: B (Class B ears produced approximately 20-49 seeds)
DH0 plants; Control B, Plant 4, 3rd ear
  Ears classified by the number of DH1 seed they produced: C (Class C ears produced approximately 1-20 seeds)
